According to ChEMBL document CHEMBL3621192, “Novel anti-HIV-1 NNRTIs based on a pyrazolo[4,3-d]isoxazole backbone scaffold: design, synthesis and insights into the molecular basis of action” (Medchemcomm, 2014):
pEC50, pIC50: −log10 of the molar value.

Tests used:
[1] = Cytotoxicity against human CEM-SS cells by MTS assay; format: cell-based
[2] = system: Human immunodeficiency virus 1; test: Antiviral activity against HIV1 3B infected in MT4 cells assessed as inhibition of virus-induced cytopathic effect by MTT assay; format: functional, organism-based; conditions: Human immunodeficiency virus 1, 3B
[3] = system: Human immunodeficiency virus 1; test: Antiviral activity against HIV1 RF infected in CEM-SS cells assessed as inhibition of virus-induced cytopathic effect by MTS assay; format: functional, organism-based; conditions: Human immunodeficiency virus 1, RF
[4] = Metabolic stability in rat plasma assessed as half life; format: ADME, cell-free
[5] = Cytotoxicity against human MT4 cells by MTT assay; format: cell-based
[6] = Therapeutic index, ratio of CC50 for human CEM-SS cells to EC50 for HIV1 RF infected in CEM-SS cells; format: cell-based; conditions: read-out: Ratio CC50/EC50
[7] = Therapeutic index, ratio of CC50 for human MT4 cells to EC50 for HIV1 3B infected in MT4 cells; format: cell-based; conditions: read-out: Ratio CC50/EC50
[8] = biological target: Human immunodeficiency virus type 1 reverse transcriptase (Human immunodeficiency virus 1, UniProt Q72547); test: Inhibition of HIV1 recombinant reverse transcriptase assessed as incorporation of [32P]GTP into poly(rC).oligo(dG) template primer

| Structure (SMILES) | CC50 [1] | pEC50 [2] | pEC50 [3] | half-life [4] | CC50 [5] | selectivity ratio [6] | selectivity ratio [7] | pIC50 [8] |
| --- | --- | --- | --- | --- | --- | --- | --- | --- |
| O=C1Nc2ccc(Cl)cc2[C@@](C#CC2CC2)(C(F)(F)F)O1 [EFAVIRENZ] | 550 nM | 9.01 | 9.04 | 1.48 h | 320 nM | – | – | – |
| Cc1nc(N2Nc3onc(-c4ccccc4)c3C2c2ccc(Cl)cc2)sc1/N=N/c1ccc(Cl)cc1 (stereo unspecified) | 330 nM | 9.34 | 9.44 | 7.57 h | 340 nM | 917 | 739 | 10.46 |
| CC1=C(/N=N/c2ccccc2)N=C(N2Nc3onc(-c4ccccc4)c3C2c2ccc(Cl)cc2)NN1 (stereo unspecified) | 230 nM | 9.48 | 9.36 | 2.05 h | 450 nM | 523 | 1360 | 10.35 |
| CC1=C(/N=N/c2ccc(Cl)cc2)N=C(N2Nc3onc(-c4ccccc4)c3C2c2ccc(Cl)cc2)NN1 (stereo unspecified) | 270 nM | 9.43 | 9.17 | 4.05 h | 450 nM | 403 | 1220 | 10.55 |
| Cc1ccc(/N=N/c2sc(N3Nc4onc(-c5ccccc5)c4C3c3ccc(Cl)cc3)nc2C)cc1 (stereo unspecified) | 250 nM | 9.26 | 9.60 | 5.72 h | 450 nM | 1000 | 818 | 10.57 |
| Cc1nc(N2Nc3onc(-c4ccccc4)c3C2c2ccc(Cl)cc2)sc1/N=N/c1ccccc1 (stereo unspecified) | 450 nM | 9.52 | 9.27 | 4.42 h | 260 nM | 833 | 867 | 10.72 |
| Cc1csc(N2Nc3onc(-c4ccccc4)c3C2c2ccc(Cl)cc2)n1 (stereo unspecified) | 440 nM | 9.46 | 9.33 | 5.72 h | 230 nM | 936 | 657 | 10.34 |
| Cc1nc(N2Nc3onc(-c4ccccc4)c3C2c2ccc(Cl)cc2)sc1/N=N/c1ccc([N+](=O)[O-])cc1 (stereo unspecified) | 250 nM | 9.74 | 9.60 | 6.08 h | 280 nM | 1000 | 1560 | 10.57 |
| Cc1nc(N2Nc3onc(-c4ccccc4)c3C2c2ccc(Cl)cc2)sc1/N=N/c1ccc(Br)cc1 (stereo unspecified) | 140 nM | 9.57 | 9.47 | 4.07 h | 390 nM | 412 | 1440 | 10.80 |
| N/N=C(\N)N1Nc2onc(-c3ccccc3)c2C1c1ccc(Cl)cc1 (stereo unspecified) | 340 nM | 9.54 | 9.34 | 4.57 h | 170 nM | 739 | 586 | 10.74 |
| NC(=S)N1Nc2onc(-c3ccccc3)c2C1c1ccc(Cl)cc1 (stereo unspecified) | 360 nM | 9.55 | 9.11 | 2.2 h | 340 nM | 462 | 1210 | 10.43 |
| COc1ccc(/N=N/c2sc(N3Nc4onc(-c5ccccc5)c4C3c3ccc(Cl)cc3)nc2C)cc1 (stereo unspecified) | 340 nM | 9.36 | 9.46 | 3.9 h | 460 nM | 971 | 1050 | 10.44 |
| CC1=C(/N=N/c2ccc(C)cc2)N=C(N2Nc3onc(-c4ccccc4)c3C2c2ccc(Cl)cc2)NN1 (stereo unspecified) | 360 nM | 9.31 | 9.37 | 2.57 h | 330 nM | 837 | 673 | 10.72 |
